Measured values reported in US8198332B2, “Salicylamide derivatives as nicotinic alpha 7 modulators” (Roche Palo Alto LLC, priority 2008, dated 2012).

Molecular target: T1, human nicotinic alpha7 WT receptor (Homo sapiens, UniProt P36544)
T1 construct: expressed in transfected cells; host or cells: GH4C1 cells (rat pituitary-derived cell line), RPA clone #34.7
Test: Nicotinic alpha 7 modulation assay (FLIPR, cytosolic Ca2+ elevation, FLUO-3)
Format: cell-based
Procedure: Cell Culture Growth Media: F10 medium (Invitrogen), 2.5% Fetal Bovine Serum (FBS, Summit Biotechnology); 15% heat inactivated donor Horse Serum (Invitrogen), 250 μg/ml Hygromycin B (Invitrogen); and 100 nM Methyllicaconite (MLA, Sigma) are added to each new culture by 50-fold dilution of stock solution prepared in H2O at […].
GH4C1 cells (rat pituitary-derived cell line) stably expressing human nicotinic alpha7 WT receptor (RPA clone #34.7) are cultivated in cell culture growth media (described above) at 37 C in a humidified atmosphere containing 4% CO2. […]
The alpha 7 nAChR assay is a cell-based functional readout designed to determine the effect of test compounds to either directly activate nicotinic receptor channels and/or to modulate activation by the native agonist acetylcholine (ACh, Sigma). […]
Assay of test compound effect on activation of the alpha7 nicotinic receptor channel is done by measurement of cytosolic [Ca^2+] elevation as reported by increased FLUO-3 fluorescence using a two addition experimental design and FLIPR™ (Molecular Devices). Following a 30 second baseline recording, test compounds are added online (dilution scheme below) and cell response is recorded for an additional 5 minutes. After a second addition of ACh (30 μM, FAC), plates are read for an additional 4 minutes. […]

T1 sequence (P36544 23-502): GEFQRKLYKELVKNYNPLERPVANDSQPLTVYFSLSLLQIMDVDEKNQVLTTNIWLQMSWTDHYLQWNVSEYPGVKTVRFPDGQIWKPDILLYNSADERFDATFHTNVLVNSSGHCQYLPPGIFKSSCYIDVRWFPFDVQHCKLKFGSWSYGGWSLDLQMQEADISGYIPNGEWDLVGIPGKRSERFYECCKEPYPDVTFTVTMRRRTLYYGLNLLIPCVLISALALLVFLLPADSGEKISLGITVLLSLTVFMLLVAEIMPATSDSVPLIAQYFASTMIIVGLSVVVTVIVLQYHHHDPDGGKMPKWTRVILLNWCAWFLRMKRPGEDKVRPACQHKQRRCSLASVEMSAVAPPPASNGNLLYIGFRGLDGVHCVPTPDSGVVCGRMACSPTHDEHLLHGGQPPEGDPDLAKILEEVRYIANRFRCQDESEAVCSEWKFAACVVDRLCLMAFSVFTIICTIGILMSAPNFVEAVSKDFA

Work on C#CC1(NC(=O)c2cc(-c3ccc(OC)cc3C)ccc2OCC2CC2)CCCCC1 [I-6, 4-Cyclopropylmethoxy-4′-methoxy-2′-methyl-biphenyl-3-carboxylic acid (1-ethynyl-cyclohexyl)-amide] yielded an EC50 of 220 nM and a positive allosteric modulation (GH4C1 cells stably expressing human nicotinic alpha7 WT receptor, FLIPR, second addition of ACh 30 μM) of 255%.
